Like-named read-outs stand apart in the source and are kept apart here.
Tests used:
[1] = test system: IκB kinases (IKK), JNK1, p38 and Syk, caspase 3, caspase 8; test: Direct inhibition of kinases and caspases related to the TNFα pathway (CEREP/Eurofins panel); type: biochemical; details: at 1 µM
Experimental: (§1) Kinases and caspases activities in presence of 1 µM of compound 1 were carried out by CEREP/Eurofins (Celle-Lévescault). The activity of compound 1 on the different kinases and caspases was compared to control values. Data are expressed as percentages of inhibition of control values.

Syk = target: T1, Syk (Homo sapiens, UniProt P43405); test: CEREP/Eurofins kinase inhibition, Syk; type: biochemical; details: read-out: % Inhibition of Control Values
T1 construct: purchased CEREP/Eurofins
Experimental: as §1

Balb/C mice = test: LPS/D-Galactosamine induced lethal shock (TNFα-dependent hepatic shock model); type: in vivo
Experimental: 7 weeks-old Balb/C mice were force-fed with 100 μl of a solution of DMSO containing various doses of compound 1 (5 mg down to 0.5 mg) eight hours before receiving an intraperitoneal injection of 200 μl of PBS containing 0.1 μg of LPS and 20 mg of D-Galactosamine. A control group (DMSO) was force-fed with 100 μl of a solution of DMSO alone eight hours before to be injected with 200 μl of LPS/D-Galactosamine solution. Mice survival was monitored for 48 hours after the injection of LPS/D-Galactosamine.
7 weeks-old Balb/C mice were forced-fed with a solution of DMSO containing 5 mg of compound 1 eight hours before receiving an intraperitoneal injection of 200 μl of PBS containing 0.1 μg of LPS and 20 mg of D-Galactosamine. Eight hours after LPS/D-Galactosamine injection, mice were sacrificed by cervical dislocation and livers were harvested, fixed in 4% formalin and embedded in paraffin. […] Slides were scanned with a slide scanner (Perkin Elmer) and analyzed with Pannoramic viewer (3D HISTECH).
7 weeks-old Balb/C mice were forced-fed with a solution of DMSO containing 5 mg of compound 1 eight hours before receiving an intraperitoneal injection of 200 μl of PBS containing 0.1 μg of LPS and 20 mg of D-Galactosamine. Three hours after LPS/D-Galactosamine injection, mice were anesthetized with ketamine/xylazine to recover blood by cardiac puncture. Sera were kept at −80 °C until assay.
TNFα in serum was quantified using U-CyTech biosciences kits (Utrecht, The Netherlands) according to manufacturer’s procedures.
7 weeks-old Balb/C mice were forced-fed with a solution of DMSO containing 5 mg of compound 1 eight hours before receiving an intraperitoneal injection of 200 μl of PBS containing 0.1 μg of LPS and 20 mg of D-Galactosamine. Eight hours after, mice were anesthetized by an injection of ketamine/xylazine to recover blood by cardiac puncture. Sera were kept at −80 °C until assay. Quantification of AST/ALT was performed using Architec ci 8200 analyser (Abbott) with reagent kits from Abbott.

[2] = test system: murine TNFα-induced apoptosis on L929 cells; test: Neutralization of murine TNFα induced apoptosis in L929 cells; type: cell-based; details: Mus musculus
Experimental: (§2) 80% confluent L929 cells were plated in flat bottom plates at 4 × 10^5 cells per well in 100 μl of DMEM medium containing 10% FBS, 2 mM L-Glutamine, 100 U/ml Penicillin − 100 μg/ml Streptomycin and incubated for one night at 37 °C, 5% CO2. TNFα or TNFβ (150 pg/ml), Actinomycin D (4 μg/ml) and the compounds at different concentrations (ranging from 100 μM to 0.8 μM) were mixed in 150 μl DMEM medium 1% FBS, 2 mM L-Glutamine, 100 U/ml Penicillin−100 μg/ml Streptomycin in U-bottom plates. After two hours incubation at 37 °C, 5% CO2, 100 μl of the mix was added to the plated cells and incubated at 37 °C, 5% CO2 for 24 hours. Supernatants were discarded and 100 μl of MTT at 0.5 mg/ml were added to wells. After two hours, supernatants were discarded and 200 μl of DMSO were then added. Plates were read at 570 nm with a spectrophotometer providing the optical density (OD) of each well. The percentage of neutralization of TNFα by a compound was calculated using equation 3:3 %Neutra=ODcompound−ODTNFα/ODcells−ODTNFα×100
(§3) An IC50 could be computed from the percentage of neutralization for each compound.

[3] = Solubility in aqueous solvents; type: physicochemical
p38γ kinase = target: T2, p38γ kinase (Homo sapiens, UniProt P53778); test: CEREP/Eurofins kinase inhibition, p38γ; type: biochemical; details: read-out: % Inhibition of Control Values
T2 construct: purchased CEREP/Eurofins
T2 sequence (P53778 whole entry): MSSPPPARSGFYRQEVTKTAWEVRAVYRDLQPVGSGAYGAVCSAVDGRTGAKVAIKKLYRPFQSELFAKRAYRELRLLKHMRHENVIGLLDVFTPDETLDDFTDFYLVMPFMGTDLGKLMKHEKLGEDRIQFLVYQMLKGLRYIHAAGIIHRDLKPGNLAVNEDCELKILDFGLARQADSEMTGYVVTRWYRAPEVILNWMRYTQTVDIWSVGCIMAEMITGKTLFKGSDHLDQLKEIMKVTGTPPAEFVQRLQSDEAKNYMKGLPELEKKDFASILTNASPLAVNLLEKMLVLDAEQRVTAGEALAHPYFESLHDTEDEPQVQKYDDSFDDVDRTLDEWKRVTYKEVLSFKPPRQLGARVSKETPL
Experimental: as §1

TNFα [4] = target: T3, TNFα (Homo sapiens, UniProt P01375); test: Intrinsic tryptophan fluorescence of TNFα; type: binding; details: 0.5 μM TNFα; 20–100 µM range
T3 construct: purchased R&D Systems
T3 sequence (P01375 77-233 limits assumed): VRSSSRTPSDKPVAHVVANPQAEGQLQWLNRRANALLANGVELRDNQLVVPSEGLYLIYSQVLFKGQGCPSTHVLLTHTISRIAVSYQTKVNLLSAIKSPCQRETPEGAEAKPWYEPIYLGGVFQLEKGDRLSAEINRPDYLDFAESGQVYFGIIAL
Experimental: All samples were brought to 10 mM phosphate buffer, 0.05% Tween20, 1% DMSO. Fluorescence readings were made with a Quantamaster QM4CW spectrofluorimeter (Photon Technology International), by exciting TNFα at 290 nm and measuring the emission peaks at 322 nm. Compound 1 inner filter effects were corrected using absorbance measurements of compound alone solutions at 290 nm and 322 nm.

IKKα = target: T4, IKKα (Homo sapiens, UniProt O15111); test: CEREP/Eurofins kinase inhibition, IKKα; type: biochemical; details: read-out: % Inhibition of Control Values
T4 construct: purchased CEREP/Eurofins
T4 sequence (O15111 whole entry): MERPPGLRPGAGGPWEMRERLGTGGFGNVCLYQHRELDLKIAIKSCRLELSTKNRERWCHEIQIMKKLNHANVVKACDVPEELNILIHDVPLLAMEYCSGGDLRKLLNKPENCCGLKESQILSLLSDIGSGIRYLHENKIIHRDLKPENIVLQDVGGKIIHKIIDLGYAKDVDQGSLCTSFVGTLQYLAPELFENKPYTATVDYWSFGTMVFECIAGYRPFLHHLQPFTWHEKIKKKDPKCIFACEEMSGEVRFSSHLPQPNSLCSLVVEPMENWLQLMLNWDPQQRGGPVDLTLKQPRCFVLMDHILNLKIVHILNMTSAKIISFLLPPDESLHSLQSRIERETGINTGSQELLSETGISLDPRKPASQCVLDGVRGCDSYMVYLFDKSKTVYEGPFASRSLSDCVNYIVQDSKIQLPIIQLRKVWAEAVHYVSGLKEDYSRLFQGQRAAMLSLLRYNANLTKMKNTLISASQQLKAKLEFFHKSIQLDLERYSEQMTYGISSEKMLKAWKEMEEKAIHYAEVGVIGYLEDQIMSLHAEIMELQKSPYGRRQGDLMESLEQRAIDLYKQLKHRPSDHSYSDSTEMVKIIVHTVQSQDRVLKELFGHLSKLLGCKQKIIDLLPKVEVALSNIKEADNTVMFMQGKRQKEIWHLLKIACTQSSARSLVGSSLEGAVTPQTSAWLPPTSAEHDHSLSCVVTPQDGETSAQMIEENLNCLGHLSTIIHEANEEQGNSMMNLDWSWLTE
Experimental: as §1

Caspase 8 = target: T5, Caspase 8 (Homo sapiens, UniProt Q14790); test: CEREP/Eurofins caspase inhibition, Caspase 8; type: biochemical; details: Caspase 8, 1 μM; read-out: % Inhibition of Control Values
T5 construct: purchased CEREP/Eurofins
T5 sequence (Q14790 217-374 limits assumed): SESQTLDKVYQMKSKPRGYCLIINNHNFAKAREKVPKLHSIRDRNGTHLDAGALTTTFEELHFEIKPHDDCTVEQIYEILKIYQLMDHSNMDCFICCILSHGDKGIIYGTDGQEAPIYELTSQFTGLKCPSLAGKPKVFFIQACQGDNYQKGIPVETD
Experimental: as §1

JNK1 = target: T6, JNK1 (Homo sapiens, UniProt P45983); test: CEREP/Eurofins kinase inhibition, JNK1; type: biochemical; details: JNK1, 1 μM; read-out: % Inhibition of Control Values
T6 construct: purchased CEREP/Eurofins
T6 sequence (P45983 whole entry): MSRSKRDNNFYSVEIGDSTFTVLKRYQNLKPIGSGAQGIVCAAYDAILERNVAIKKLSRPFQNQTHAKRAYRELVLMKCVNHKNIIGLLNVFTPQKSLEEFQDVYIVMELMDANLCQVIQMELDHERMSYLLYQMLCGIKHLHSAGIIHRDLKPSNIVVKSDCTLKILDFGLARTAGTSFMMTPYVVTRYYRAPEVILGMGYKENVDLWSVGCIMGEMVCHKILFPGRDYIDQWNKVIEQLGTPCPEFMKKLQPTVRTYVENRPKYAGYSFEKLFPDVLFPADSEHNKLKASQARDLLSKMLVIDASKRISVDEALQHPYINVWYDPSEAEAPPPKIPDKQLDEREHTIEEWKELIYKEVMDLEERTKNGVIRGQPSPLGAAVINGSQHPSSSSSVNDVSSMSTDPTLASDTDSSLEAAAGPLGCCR
Experimental: as §1

[5] = test system: TNFα induced NF-κB activation in HEK cells; test: HEK-Blue TNFα NF-κB secreted embryonic alkaline phosphatase reporter assay; type: cell-based, human; details: Homo sapiens, HEK293; HEK cell line expressing TNFRI; read-out: IC50, TNFα signaling NF-κB reporter
Experimental: 80% confluent HEK-Blue™ TNFα were plated in flat bottom plates at 5 × 10^4 per well in 100 μl of DMEM containing 2 mM L-Glutamine, 100 U/ml Penicillin − 100 μg/ml Streptomycin and incubated at 37 °C, 5% CO2. Serial dilutions of compounds (ranging from 100 μM to 0.8 μM) were mixed with 400 pg/ml of human TNFα in DMEM containing 2% of FBS, 2 mM L-Glutamine, 100 U/ml Penicillin−100 μg/ml Streptomycin in U-bottom plates. After two hours of incubation at 37 °C, 5% CO2, 100 μl of the mix was added to the plated cells and incubated 24 hours at 37 °C, 5% CO2. 20 μl of supernatants were incubated for 3 hours with 180 μl of QUANTI-Blue™ to reveal secretion of phosphatase alcaline and plates were read at 620 nm with a spectrophotometer providing the optical density (OD).

TNFα/TNFRII = target: T7, TNFα/TNFRII (Homo sapiens, UniProt P01375); test: TNFα-TNFRII binding ELISA; type: biochemical
T7 construct: purchased R&D Systems
T7 sequence (P01375 77-233 limits assumed): as the sequence (P01375 77-233 limits assumed) above
Experimental: (§4) Microtiter plates were coated with 12.5 ng of TNFRI or TNFRII in 125 μl of PBS per well at 37 °C. The wells were washed, blocked with PBS/BSA 2% for three hours and washed as before. Serial dilutions of compounds were mixed with a fixed quantity of TNFα in PBS/BSA 1% and incubated two hours at 37 °C. 125 μl of the mix were added to the wells and plates were incubated overnight at 4 °C. Wells were washed incubated with 37.5 ng of TNFα biotinylated antibody in 125 μl of PBS/BSA 1% for two hours at 37 °C. Wells were washed and incubated with avidin-HRP (1:500) in 125 μl of PBS/BSA 1% for 30 minutes at 37 °C, 5% CO2. After washing, TMB solution was added to wells, quenched with 63 μl of 1 M H2SO4 solution. Absorbance was measured at 450 nm.

IKKε = target: T8, IKKε (Homo sapiens, UniProt Q14164); test: CEREP/Eurofins kinase inhibition, IKKε; type: biochemical; details: read-out: % Inhibition of Control Values
T8 construct: purchased CEREP/Eurofins
T8 sequence (Q14164 whole entry): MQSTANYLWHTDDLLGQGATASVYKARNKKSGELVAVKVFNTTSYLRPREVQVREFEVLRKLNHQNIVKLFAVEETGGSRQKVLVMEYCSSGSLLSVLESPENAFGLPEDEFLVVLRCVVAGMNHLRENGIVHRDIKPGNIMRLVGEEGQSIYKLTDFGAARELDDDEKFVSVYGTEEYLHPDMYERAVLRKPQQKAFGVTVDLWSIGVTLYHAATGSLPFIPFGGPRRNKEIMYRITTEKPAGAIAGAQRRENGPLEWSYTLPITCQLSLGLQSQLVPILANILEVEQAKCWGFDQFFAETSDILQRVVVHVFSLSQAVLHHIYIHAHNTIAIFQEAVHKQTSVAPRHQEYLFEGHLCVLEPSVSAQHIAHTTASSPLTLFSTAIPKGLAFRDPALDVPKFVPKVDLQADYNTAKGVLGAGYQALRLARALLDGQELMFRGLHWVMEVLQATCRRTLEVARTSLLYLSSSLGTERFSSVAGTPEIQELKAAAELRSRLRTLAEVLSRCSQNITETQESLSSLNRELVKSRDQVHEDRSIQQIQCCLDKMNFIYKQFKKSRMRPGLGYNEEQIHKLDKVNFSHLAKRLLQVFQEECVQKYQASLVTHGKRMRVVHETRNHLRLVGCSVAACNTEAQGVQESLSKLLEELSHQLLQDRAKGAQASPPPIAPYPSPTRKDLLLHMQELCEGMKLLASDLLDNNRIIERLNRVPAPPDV
Experimental: as §1

IKKβ = target: T9, IKKβ (Homo sapiens, UniProt O14920); test: CEREP/Eurofins kinase inhibition, IKKβ; type: biochemical; details: read-out: % Inhibition of Control Values
T9 construct: purchased CEREP/Eurofins
T9 sequence (O14920 whole entry): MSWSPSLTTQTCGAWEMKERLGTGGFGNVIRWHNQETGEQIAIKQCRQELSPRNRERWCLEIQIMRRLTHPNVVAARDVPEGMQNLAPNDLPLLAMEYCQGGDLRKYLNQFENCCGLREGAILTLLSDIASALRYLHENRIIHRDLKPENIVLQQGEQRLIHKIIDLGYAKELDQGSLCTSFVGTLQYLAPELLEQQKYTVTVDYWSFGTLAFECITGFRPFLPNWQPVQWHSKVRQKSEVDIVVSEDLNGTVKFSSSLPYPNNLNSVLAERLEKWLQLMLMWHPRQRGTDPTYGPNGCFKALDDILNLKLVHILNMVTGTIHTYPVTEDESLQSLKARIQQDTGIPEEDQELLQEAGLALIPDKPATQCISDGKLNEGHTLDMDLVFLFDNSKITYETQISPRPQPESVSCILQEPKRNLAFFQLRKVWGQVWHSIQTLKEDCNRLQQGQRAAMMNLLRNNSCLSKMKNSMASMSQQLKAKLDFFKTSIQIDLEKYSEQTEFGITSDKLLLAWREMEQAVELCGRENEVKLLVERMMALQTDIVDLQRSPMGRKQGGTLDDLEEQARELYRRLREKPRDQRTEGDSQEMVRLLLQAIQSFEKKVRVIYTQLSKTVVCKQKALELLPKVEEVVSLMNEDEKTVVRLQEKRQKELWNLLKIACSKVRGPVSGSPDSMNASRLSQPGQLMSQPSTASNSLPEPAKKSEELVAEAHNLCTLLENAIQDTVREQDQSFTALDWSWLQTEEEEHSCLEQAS
Experimental: as §1

p38α kinase = target: T10, p38α kinase (Homo sapiens, UniProt Q16539); test: CEREP/Eurofins kinase inhibition, p38α; type: biochemical; details: read-out: % Inhibition of Control Values
T10 construct: purchased CEREP/Eurofins
T10 sequence (Q16539 whole entry): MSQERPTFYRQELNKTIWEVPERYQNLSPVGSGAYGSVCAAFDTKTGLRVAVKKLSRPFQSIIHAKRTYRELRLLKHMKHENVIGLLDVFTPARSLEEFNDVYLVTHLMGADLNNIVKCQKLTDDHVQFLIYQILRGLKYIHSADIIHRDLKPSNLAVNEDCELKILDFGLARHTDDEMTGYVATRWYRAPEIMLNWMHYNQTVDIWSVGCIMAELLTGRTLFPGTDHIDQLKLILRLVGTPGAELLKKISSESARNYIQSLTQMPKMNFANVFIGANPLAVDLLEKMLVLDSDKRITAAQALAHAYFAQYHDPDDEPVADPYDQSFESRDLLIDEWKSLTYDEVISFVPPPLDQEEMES
Experimental: as §1

[6] = test system: TNFβ induced apoptosis in L929 cell line; test: Neutralization of TNFβ induced apoptosis in L929 cells (MTT); type: cell-based
Experimental: as §2, §3

Bioavailability = type: in vivo; details: mouse, oral
caspase 3 activation = test: Caspase-Glo 3 activation assay; type: cell-based; details: dose dependent
Experimental: (§5) Caspases 3 and 8 activation was determined using Caspase-Glo® 3 and Caspase-Glo-8® assays kits (Promega) according to the manufacter’s procedures. After 8 hours of treatment, plates were equilibrated at room temperature. 100 μl Caspase-Glo 3® and Caspase-Glo 8® reagent were added to each well. Luminescence was read on a FLUOstar OPTIMA reader.

Caspase 3 = target: T11, Caspase 3 (Homo sapiens, UniProt P42574); test: CEREP/Eurofins caspase inhibition, Caspase 3; type: biochemical; details: Caspase 3, 1 μM; read-out: % Inhibition of Control Values
T11 construct: purchased CEREP/Eurofins
T11 sequence (P42574 29-175 limits assumed): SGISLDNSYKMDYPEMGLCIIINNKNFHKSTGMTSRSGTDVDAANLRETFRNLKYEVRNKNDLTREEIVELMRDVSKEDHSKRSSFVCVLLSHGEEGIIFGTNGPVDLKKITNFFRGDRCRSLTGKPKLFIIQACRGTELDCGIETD
Experimental: as §1

[7] = test system: CXCL1 secretion by L929 cells; test: CXCL1 secretion in L929 supernatants after TNFα stimulation (ELISA); type: cell-based, murine; details: TNFα (5 ng/ml)
Experimental: Cells were plated at 2.5 × 10^5 cells/well in 24-well plates and treated as indicated. Eight hours later, supernatants were recovered and kept at −20 °C for later use. The concentration of murine CXCL1 was measured in supernatants with a dosage ELISA kit obtained from R&D Systems (Lille, France) according to the manufacter’s procedures.

TNFα [8] = target: T3, TNFα; test: Surface Acoustic Wave (SAW) biosensor gravimetric measurement of dissociation constants; type: binding; details: for Kd: two-site binding model, room temperature
Experimental: Gravimetric measurements were performed using surface acoustic wave (SAW) sensors. TNFα solutions were prepared by diluting 10 µg of lyophilized TNFα in 1 ml of PBS. They were kept in the freezer (at −18 °C) and put at room temperature just before their further grafting onto the gold surface area of the SAW sensor.
Phase shift variations (ΔΦ) versus compound concentration (C) were fitted using equation 1 ΔΦ=Φsat×C/Kd+C where Φsat represents the maximum sensor’s response to the compound binding and Kd represents the equilibrium dissociation constant.
In the case of a two-site binding, equation 2 was used for fitting:2 ΔΦ=Φsat,1×C/Kd1+C+Φsat,2×C/Kd2+C
where Φsat1 and Φsat2 are related to the maximum sensor’s response for each binding site and Kd1 and Kd2 are their respective dissociation constants.

p38δ kinase = target: T12, p38δ kinase (Homo sapiens, UniProt O15264); test: CEREP/Eurofins kinase inhibition, p38δ; type: biochemical; details: read-out: % Inhibition of Control Values
T12 construct: purchased CEREP/Eurofins
T12 sequence (O15264 whole entry): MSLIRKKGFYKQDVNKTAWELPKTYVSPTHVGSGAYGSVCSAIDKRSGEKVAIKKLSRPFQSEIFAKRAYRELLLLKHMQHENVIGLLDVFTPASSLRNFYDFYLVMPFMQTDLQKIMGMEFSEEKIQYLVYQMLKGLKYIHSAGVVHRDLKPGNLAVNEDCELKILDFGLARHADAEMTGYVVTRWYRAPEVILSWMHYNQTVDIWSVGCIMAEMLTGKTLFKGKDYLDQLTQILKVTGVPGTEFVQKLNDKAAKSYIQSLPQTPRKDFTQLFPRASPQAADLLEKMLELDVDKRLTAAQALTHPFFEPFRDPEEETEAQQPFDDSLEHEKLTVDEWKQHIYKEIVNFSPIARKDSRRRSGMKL
Experimental: as §1

caspase 8 activation = test: Caspase-Glo 8 activation assay; type: cell-based; details: dose dependent
Experimental: as §5

TNFα/TNFRI = target: T13, TNFα/TNFRI (Homo sapiens, UniProt P01375); test: TNFα-TNFRI binding ELISA; type: biochemical
T13 construct: purchased R&D Systems
T13 sequence (P01375 77-233 limits assumed): as the sequence (P01375 77-233 limits assumed) above
Experimental: as §4

[9] = test system: human TNFα induced apoptosis on the L929 cell line; test: Neutralization of human TNFα induced apoptosis in L929 cells (MTT); type: cell-based; details: human TNFα, read-out: IC50, inhibition of TNFα induced apoptosis
Experimental: as §2, §3

[10] = livers eight hours after LPS/D-Galactosamine

In the case of `Cc1c(Cl)cccc1N(CC(=O)N1CCN(Cc2ccccc2)CC1)S(=O)(=O)c1ccccc1` [Compound 1], the “effect on kinases and caspases related to the TNFα pathway” value [1] is reported as “no significant effect”, the inhibition at 1 µM (Syk) is reported as -6.9% and the “expression of cleaved caspase 3 in liver (immunohistochemistry)” value (Balb/C mice; [10]) is reported as “reduced expression of cleaved caspase 3”. For the same compound, the “liver damage and hemorrhage (H&E histopathology)” value (Balb/C mice; [10]) was “reduced liver damage and hemorrhage”, the “mice survival / protection from shock” value (Balb/C mice; oral 5 mg per mouse eight hours before shock) was “fully protective effect” and the “mice serum level of AST/ALT” value (Balb/C mice; oral 5 mg, eight hours after shock) was “diminished”. The “mice serum level of TNFα” value (Balb/C mice; oral 5 mg, three hours after shock) was “did not affect”, the IC50 [2] was ~10 µM and the “solubility in aqueous solvents” value [3] was “moderate solubility”. The inhibition at 1 µM (p38γ kinase) was -11%, the “modification of intrinsic tryptophan fluorescence of TNFα” value (TNFα [4]) was “dose dependent manner” and the inhibition at 1 µM (IKKα) was 3.2%. It also gave an inhibition at 1 µM (Caspase 8) of -7.3%, an inhibition at 1 µM (JNK1) of -3% and an IC50 [5] of 10 µM. The IC50 (TNFα/TNFRII) was 31 µM, the inhibition at 1 µM (IKKε) was 7.3% and the inhibition at 1 µM (IKKβ) was 10.3%. It also gave an inhibition at 1 µM (p38α kinase) of 1.5%, a maximal survival ([6]; TNFβ, at 100 μM) of 40% and an IC50 ([6]; read-out: IC50, inhibition of TNFβ induced apoptosis) of 28 µM. For the same compound, the bioavailability (Bioavailability) was “low bioavailability”, the “activation of caspase 3” value (caspase 3 activation) was “blocked the activation” and the inhibition at 1 µM (Caspase 3) was -1.8%. For the same compound, the CXCL1 in supernatants [7] was “significantly less CXCL1”, the “ligand efficiency LE1” value (TNFα [8]; from Kd1) was 0.22 and the “ligand efficiency LE2” value (TNFα [8]; from Kd2) was 0.37. For the same compound, the Kd (TNFα [8]; read-out: Kd1 of TNFα/compound 1 complex) was 4790 ± 1120 nM, the Kd (TNFα [8]; read-out: Kd2 of TNFα/compound 1 complex) was 2.31 ± 1.03 nM and the inhibition at 1 µM (p38δ kinase) was -1.8%. The “activation of caspase 8” value (caspase 8 activation) was “blocked the activation”, the IC50 (TNFα/TNFRI) was 37 µM and the IC50 ([9]; L929, L929 cell line) was 12 µM. The IC50 ([9]; L929 cell line) was ~10 µM.

Reference: PMC5469758, “Identification of an in vivo orally active dual-binding protein-protein interaction inhibitor targeting TNFα through combined in silico/in vitro/in vivo screening” (Scientific Reports, 2017)
